Test results from ChEMBL document CHEMBL1833829, “Development of 2-substituted-N-(naphth-1-ylmethyl) and N-benzhydrylpyrimidin-4-amines as dual cholinesterase and Aβ-aggregation inhibitors: Synthesis and biological evaluation” (Bioorg Med Chem Lett, 2011).

Experiments:
Cholinesterase [1] = biological target: T1, Cholinesterase (Equus caballus, UniProt P81908)
Description: (§1) Inhibition of equine BuChE by Ellman's method

Cholinesterase [2] = biological target: T1, Cholinesterase; remark: listed apart in the source
Description: as §1

Acetylcholinesterase = Acetylcholinesterase (Homo sapiens, UniProt P22303)
Chain of Acetylcholinesterase (P22303 whole entry): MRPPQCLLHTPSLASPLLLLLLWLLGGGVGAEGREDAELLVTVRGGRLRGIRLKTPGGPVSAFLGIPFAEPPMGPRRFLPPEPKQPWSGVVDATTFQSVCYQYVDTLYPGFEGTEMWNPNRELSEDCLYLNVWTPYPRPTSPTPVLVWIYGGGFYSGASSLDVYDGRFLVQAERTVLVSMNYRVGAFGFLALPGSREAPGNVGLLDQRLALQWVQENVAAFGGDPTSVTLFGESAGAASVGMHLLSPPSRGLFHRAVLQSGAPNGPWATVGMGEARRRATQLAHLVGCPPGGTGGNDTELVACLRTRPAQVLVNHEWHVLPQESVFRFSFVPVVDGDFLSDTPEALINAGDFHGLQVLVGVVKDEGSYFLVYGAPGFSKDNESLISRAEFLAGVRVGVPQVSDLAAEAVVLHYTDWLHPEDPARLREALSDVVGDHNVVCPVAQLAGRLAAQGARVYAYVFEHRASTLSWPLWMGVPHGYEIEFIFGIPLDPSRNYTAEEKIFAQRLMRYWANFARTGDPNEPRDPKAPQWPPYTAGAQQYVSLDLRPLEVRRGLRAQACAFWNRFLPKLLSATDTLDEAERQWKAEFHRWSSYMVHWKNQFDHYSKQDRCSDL
Description: Inhibition of human AChE by Ellman's assay

T1 sequence (P81908 whole entry): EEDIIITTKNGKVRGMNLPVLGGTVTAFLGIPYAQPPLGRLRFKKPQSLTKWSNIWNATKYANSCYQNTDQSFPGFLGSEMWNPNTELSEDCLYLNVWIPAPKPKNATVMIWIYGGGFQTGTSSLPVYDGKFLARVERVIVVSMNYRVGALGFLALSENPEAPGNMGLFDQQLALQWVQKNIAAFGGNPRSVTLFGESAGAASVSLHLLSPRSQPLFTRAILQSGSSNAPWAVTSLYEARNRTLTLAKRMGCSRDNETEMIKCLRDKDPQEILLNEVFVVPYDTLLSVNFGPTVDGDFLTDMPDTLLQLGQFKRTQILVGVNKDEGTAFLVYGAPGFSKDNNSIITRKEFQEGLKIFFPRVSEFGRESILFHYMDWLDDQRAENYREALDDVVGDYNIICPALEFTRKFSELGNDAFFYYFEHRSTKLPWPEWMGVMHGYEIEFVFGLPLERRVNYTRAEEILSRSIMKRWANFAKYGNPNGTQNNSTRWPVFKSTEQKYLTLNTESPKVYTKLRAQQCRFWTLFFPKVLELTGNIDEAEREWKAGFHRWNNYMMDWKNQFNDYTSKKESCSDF

| SMILES | IC50 (Cholinesterase [1]) [nM] | IC50 (Cholinesterase [2]) [µM] | IC50 (Acetylcholinesterase) [µM] |
| --- | --- | --- | --- |
| CC1CCN(c2nccc(NCc3cccc4ccccc34)n2)CC1 | 2200 | – | – |
| CC(C)N1CCN(c2nccc(NCc3cccc4ccccc34)n2)CC1 | – | 7.6 | 15.8 |
| CC(C)C1CCN(c2nccc(NCc3cccc4ccccc34)n2)CC1 | – | 9.1 | 16.7 |
| CCCN1CCN(c2nccc(NCc3cccc4ccccc34)n2)CC1 | – | 18.1 | 19 |
| c1ccc2c(CNc3ccnc(N4CCN(C5CCCCC5)CC4)n3)cccc2c1 | – | 3.9 | 8 |
| CC(=O)N1CCN(c2nccc(NCc3cccc4ccccc34)n2)CC1 | – | 32.9 | 13.8 |
| CC(C)(C)OC(=O)N1CCN(c2nccc(NCc3cccc4ccccc34)n2)CC1 | – | > 100 | 50.8 |
| c1ccc2c(CNc3ccnc(N4CCNCC4)n3)cccc2c1 | – | 25.4 | 17.5 |
| OCCN1CCN(c2nccc(NCc3cccc4ccccc34)n2)CC1 | – | 17.9 | 9.8 |
| COCCN1CCN(c2nccc(NCc3cccc4ccccc34)n2)CC1 | – | 26.5 | 11.7 |
| CN1CCN(c2nccc(NC(c3ccccc3)c3ccccc3)n2)CC1 | – | 23.8 | 13.7 |
| CC1CCN(c2nccc(NC(c3ccccc3)c3ccccc3)n2)CC1 | – | 33.8 | 32.2 |
| CC(C)N1CCN(c2nccc(NC(c3ccccc3)c3ccccc3)n2)CC1 | – | 9.7 | 20.3 |
| CC(C)C1CCN(c2nccc(NC(c3ccccc3)c3ccccc3)n2)CC1 | – | 87 | 42.5 |
| CCCN1CCN(c2nccc(NC(c3ccccc3)c3ccccc3)n2)CC1 | – | 17.5 | 14.6 |
| c1ccc(C(Nc2ccnc(N3CCN(C4CCCCC4)CC3)n2)c2ccccc2)cc1 | – | 7.6 | 10 |
| CC(=O)N1CCN(c2nccc(NC(c3ccccc3)c3ccccc3)n2)CC1 | – | > 100 | 29 |
| CC(C)(C)OC(=O)N1CCN(c2nccc(NC(c3ccccc3)c3ccccc3)n2)CC1 | – | > 100 | > 100 |
| c1ccc(C(Nc2ccnc(N3CCNCC3)n2)c2ccccc2)cc1 | – | > 100 | 31.3 |
| OCCN1CCN(c2nccc(NC(c3ccccc3)c3ccccc3)n2)CC1 | – | 59.5 | 21.6 |
| COCCN1CCN(c2nccc(NC(c3ccccc3)c3ccccc3)n2)CC1 | – | 28.4 | 39.2 |
